Source: PMC5160999 (ChemMedChem, 2016)
pIC50: −log10 of the molar value. One block for each molecule: values may come before it.

Assays:
[1] = test system: S. aureus; assay: Synergy/antagonism two-drug combination assay, S. aureus; format: cell-based
[2] = test system: B. subtilis; assay: Synergy/antagonism two-drug combination assay, B. subtilis; format: cell-based
[3] = target: EcUPPP (Escherichia coli, UniProt P60932); assay: EcUPPP inhibition, malachite-green assay; format: biochemical, E. coli; settings: read-out: IC50 EuUPPP
[4] = test system: P. aeruginosa; assay: Synergy/antagonism two-drug combination assay, P. aeruginosa; format: cell-based
[5] = test system: A. baumannii; assay: Synergy/antagonism two-drug combination assay, A. baumannii; format: cell-based
[6] = test system: E. coli; assay: Synergy/antagonism two-drug combination assay, E. coli; format: cell-based
[7] = test system: K. pneumoniae; assay: Synergy/antagonism two-drug combination assay, K. pneumoniae; format: cell-based

Chain of EcUPPP (P60932 whole entry): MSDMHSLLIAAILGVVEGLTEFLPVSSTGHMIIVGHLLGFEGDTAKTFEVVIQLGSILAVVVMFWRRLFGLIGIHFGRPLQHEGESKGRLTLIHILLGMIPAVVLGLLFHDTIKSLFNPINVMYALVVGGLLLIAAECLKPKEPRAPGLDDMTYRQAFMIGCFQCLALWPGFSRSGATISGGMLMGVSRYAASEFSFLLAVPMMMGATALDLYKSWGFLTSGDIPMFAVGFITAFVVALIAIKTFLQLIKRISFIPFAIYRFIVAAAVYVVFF

Molecule: Bacitracin
- FIC ([1]; S. aureus, combination of 32 with Bacitracin): 0.21 ± 0.039
- MIC ([1]; S. aureus, drug acting alone): 200 µg/mL
- pIC50 [3]: 4.49
- FIC ([2]; B. subtilis, combination of 32 with Bacitracin): 0.12 ± 0.028
- MIC ([2]; B. subtilis, drug acting alone): 200 µg/mL

Molecule: CC1(C)S[C@@H]2[C@H](NC(=O)[C@H](N)c3ccccc3)C(=O)N2[C@H]1C(=O)O [Ampicillin]
- FIC ([1]; S. aureus, combination of 32 with Ampicillin): 0.30 ± 0.095
- MIC ([1]; Staphylococcus aureus): 0.5 µg/mL
- FIC ([2]; B. subtilis, combination of 32 with Ampicillin): 0.18 ± 0.041
- MIC ([2]; Bacillus subtilis): 0.5 µg/mL

Molecule: CN(C)[C@@H]1C(O)=C(C(N)=O)C(=O)[C@@]2(O)C(O)=C3C(=O)c4c(O)cccc4[C@@](C)(O)[C@H]3C[C@@H]12 [Tetracycline]
- FIC ([1]; S. aureus, combination of 32 with Tetracycline): 0.83 ± 0.38
- MIC ([1]; Staphylococcus aureus): 0.5 µg/mL
- FIC ([2]; B. subtilis, combination of 32 with Tetracycline): 0.82 ± 0.21
- MIC ([2]; Bacillus subtilis): 5 µg/mL

Molecule: O=CN(O)CCCP(=O)(O)O [fosmidomycin]
- FIC ([4]; P. aeruginosa, combination of 11 with fosmidomycin): 0.18 ± 0.066
- MIC ([4]; Pseudomonas aeruginosa): 3 µg/mL
- FIC ([5]; A. baumannii, combination of 11 with fosmidomycin): 0.27 ± 0.057
- MIC ([5]; Acinetobacter baumannii): 5 µg/mL
- FIC ([6]; E. coli, combination of 11 with fosmidomycin): 0.14 ± 0.13
- MIC ([6]; Escherichia coli): 5 µg/mL
- FIC ([2]; B. subtilis, combination of 32 with Fosmidomycin): 0.25 ± 0.043
- MIC ([2]; Bacillus subtilis): 5 µg/mL
- FIC ([7]; K. pneumoniae, combination of 11 with fosmidomycin): 0.12 ± 0.014
- MIC ([7]; Klebsiella pneumoniae): 5 µg/mL

Molecule: COc1cc(Cc2cnc(N)nc2N)cc(OC)c1OC [Trimethoprim]
- FIC ([1]; S. aureus, combination of 32 with Trimethoprim): 0.69 ± 0.32
- MIC ([1]; Staphylococcus aureus): 15 µg/mL
- FIC ([2]; B. subtilis, combination of 32 with Trimethoprim): 0.77 ± 0.18
- MIC ([2]; Bacillus subtilis): 0.5 µg/mL

Molecule: CN[C@H](CC(C)C)C(=O)N[C@H]1C(=O)N[C@@H](CC(N)=O)C(=O)N[C@H]2C(=O)N[C@H]3C(=O)N[C@H](C(=O)N[C@H](C(=O)O)c4cc(O)cc(O)c4-c4cc3ccc4O)[C@H](O)c3ccc(c(Cl)c3)Oc3cc2cc(c3O[C@@H]2O[C@H](CO)[C@@H](O)[C@H](O)[C@H]2O[C@H]2C[C@](C)(N)[C@H](O)[C@H](C)O2)Oc2ccc(cc2Cl)[C@H]1O [Vancomycin]
- FIC ([1]; S. aureus, combination of 32 with Vancomycin): 0.19 ± 0.019
- MIC ([1]; Staphylococcus aureus): 1.5 µg/mL
- FIC ([2]; B. subtilis, combination of 32 with Vancomycin): 0.33 ± 0.058
- MIC ([2]; Bacillus subtilis): 0.5 µg/mL

Second part, led by results:

- MIC ([1]; Staphylococcus aureus): 5 µg/mL
- MIC ([2]; Bacillus subtilis): 0.5 µg/mL
Molecule: O=C(N[C@H](CO)[C@H](O)c1ccc([N+](=O)[O-])cc1)C(Cl)Cl [Chloramphenicol]
- FIC ([1]; S. aureus, combination of 32 with Chloramphenicol): 0.71 ± 0.11
- FIC ([2]; B. subtilis, combination of 32 with Chloramphenicol): 0.55 ± 0.13

- MIC ([1]; Staphylococcus aureus): 15 µg/mL
- MIC ([2]; Bacillus subtilis): 5 µg/mL
Molecule: CC1(C)S[C@@H]2[C@H](NC(=O)C(C(=O)O)c3ccccc3)C(=O)N2[C@H]1C(=O)O (stereo partly drawn) [Carbenicillin]
- FIC ([1]; S. aureus, combination of 32 with Carbenicillin): 0.27 ± 0.015
- FIC ([2]; B. subtilis, combination of 32 with Carbenicillin): 0.25 ± 0.043

- MIC ([1]; Staphylococcus aureus): 2 µg/mL
- MIC ([2]; Bacillus subtilis): 2.5 µg/mL
Molecule: CO/N=C(\C(=O)N[C@@H]1C(=O)N2C(C(=O)O)=C(COC(C)=O)CS[C@H]12)c1csc(N)n1 [Cefotaxime]
- FIC ([1]; S. aureus, combination of 32 with Cefotaxime): 0.21 ± 0.048
- FIC ([2]; B. subtilis, combination of 32 with Cefotaxime): 0.30 ± 0.044

- MIC ([1]; Staphylococcus aureus): 200 µg/mL
- MIC ([2]; Bacillus subtilis): 200 µg/mL
Molecule: C[C@@H]1O[C@@H]1P(=O)(O)O [Fosfomycin]
- FIC ([1]; S. aureus, combination of 32 with Fosfomycin): 0.13 ± 0.022
- FIC ([2]; B. subtilis, combination of 32 with Fosfomycin): 0.21 ± 0.025

- MIC ([1]; Staphylococcus aureus): 200 µg/mL
- MIC ([2]; Bacillus subtilis): 200 µg/mL
Molecule: Cc1cc(NS(=O)(=O)c2ccc(N)cc2)no1 [Sulfamethoxazole]
- FIC ([1]; S. aureus, combination of 32 with Sulfamethoxazole): 0.75 ± 0.20
- FIC ([2]; B. subtilis, combination of 32 with Sulfamethoxazole): 0.87 ± 0.23

- MIC ([1]; S. aureus, drug acting alone): 1.5 µg/mL
- MIC ([2]; B. subtilis, drug acting alone): 1.5 µg/mL
Molecule: NC[C@H]1O[C@H](O[C@H]2[C@H](O)[C@@H](O[C@H]3O[C@H](CO)[C@@H](O)[C@H](N)[C@H]3O)[C@H](N)C[C@@H]2N)[C@H](O)[C@@H](O)[C@@H]1O [Kanamycin]
- FIC ([1]; S. aureus, combination of 32 with Kanamycin): 0.81 ± 0.17
- FIC ([2]; B. subtilis, combination of 32 with Kanamycin): 0.61 ± 0.097

- MIC ([1]; Staphylococcus aureus): 40 µg/mL
Molecule: CN[C@@H]1[C@H](O)[C@H](NC)[C@H]2O[C@@]3(O)C(=O)C[C@@H](C)O[C@H]3O[C@@H]2[C@H]1O [Spectinomycin]
- FIC ([1]; S. aureus, combination of 32 with Spectinomycin): 0.45 ± 0.091
